Data as given in patent publication US6916783B2, “Methods for accelerating bone and cartilage growth and repair” (University of Southern California, priority 1998, dated 2005).
“Also recorded” adds a separate entry of the source.

Key:
chondrocytes = experiment: Rabbit chondrocyte proliferation in culture; format: cell-based; details: 10 μg/ml peptide; days 1, 2, and 3 after culture initiation; nuclei counted after Giemsa stain; FIGS. 1-4
Protocol: Chondrocytes were isolated from the cartilage of the knee joints of adult rabbits and cultured according to the method of Okazaki et al. (Ann. Rheum. Dis. 55:181-186, 1996). Briefly, cartilage explants were minced into small pieces (approximately 1.5 mm by 1.5 mm). The tissue pieces were digested at 37° C. sequentially in 0.05% hyaluronidase (415 U/mg protein) for 10 minutes, 0.2% Type III trypsin (10,000 U/mg protein, Sigma) and 0.53 mM EDTA for 15 minutes, and 0.2% Type I collagenase (136 U/mg protein, Sigma) for 30 minutes. The samples were then washed and incubated overnight at 37° C. in 5% CO2 in air in Dulbecco's modified Eagle's medium enriched with 10% fetal calf serum, 3.5 mg/ml glucose, 0.2% Type I collagenase and antibiotics (100 U/ml penicillin and 100 μg/ml streptomycin).
After this incubation, the cells were harvested and washed once with phosphate buffered saline (pH 7.2). The cells were then counted with a hemacytometer and resuspended at 1×10^5 cells/ml in Ham's F12 supplemented with 10% fetal calf serum and antibiotics. A 10 ml aliquot of cells was transferred to collagen coated 25 cm^2 flasks (coated with collagen isolated from rat tail tendons) and incubated at 37° C. in 5% CO2 in air. […] Cell numbers were quantitated by staining the cells with Giemsa stain and counting the number of nuclei detected via microscopy.

AT2 receptor = target: T1, AT2 receptor (Homo sapiens, UniProt P50052); details: cited from earlier work
T1 sequence (P50052 1-363): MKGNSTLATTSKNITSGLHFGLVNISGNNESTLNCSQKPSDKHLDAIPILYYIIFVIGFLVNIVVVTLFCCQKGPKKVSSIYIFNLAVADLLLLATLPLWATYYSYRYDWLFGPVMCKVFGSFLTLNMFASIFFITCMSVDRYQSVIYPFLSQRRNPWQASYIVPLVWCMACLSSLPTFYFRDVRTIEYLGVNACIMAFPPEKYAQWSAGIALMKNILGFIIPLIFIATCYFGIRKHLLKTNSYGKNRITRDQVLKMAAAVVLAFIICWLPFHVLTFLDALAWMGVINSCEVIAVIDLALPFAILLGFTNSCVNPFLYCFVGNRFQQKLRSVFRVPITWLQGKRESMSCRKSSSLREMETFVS

[1] = Effectiveness tests of AII fragments (method not described); details: test not specified

| Substance | effect on chondrocyte proliferation (chondrocytes) | times higher affinity for AT2 than AT1 (AT2 receptor) [times] | effectiveness in tests [1] |
| --- | --- | --- | --- |
| Asp-Arg-Val-Tyr-Ile-His-Pro-Phe (DRVYIHPF) [AII] | accelerated the chondrocyte proliferation | 100 |  |
| His-Pro-Phe (HPF) [AII(6-8)] |  |  | not to be effective |
| Tyr-Ile-His-Pro-Phe (YIHPF) [AII(4-8)] |  |  | not to be effective; also recorded: ineffective in repeated tests |
